The values below come from ChEMBL document CHEMBL5674877, “PRMT5: A novel regulator of Hepatitis B virus replication and an arginine methylase of HBV core” (PLoS One, 2017).

Molecules are shown by their SMILES.

Holding throughout (format): cell-based
Experiment [1] concerns the target Protein arginine N-methyltransferase 5 (Homo sapiens) (UniProt O14744). Briefly: Inhibition of PRMT5 in human HepG2_hNTCP cells transfected with constant amounts of HBc-HA assessed as decrease in intensity of methylation of SmD3 at 0.5 to 500 nM incubated for 72 hrs by Western blot analysis. The following applies: HepG2-hNTCP, dose 0.5-500 nM. Background: In western blotting, separated proteins are transferred to a membrane and probed.

Experiment [2] has the same target. Briefly: Inhibition of PRMT5 in human HepG2_hNTCP cells transfected with constant amounts of HBc-HA assessed as reduction in symmetric arginine dimethylation of HBc at 0.5 to 500 nM incubated for 72 hrs by Western blot analysis. As to conditions: HepG2-hNTCP, dose 0.5-500 nM.
Experiment [3] has the same target. Briefly: Inhibition of PRMT5 in human HepG2_hNTCP cells transfected with constant amounts of HBc-HA assessed as decrease in intensity of methylation of SmB/B' at 0.5 to 500 nM incubated for 72 hrs by Western blot analysis. As to conditions: HepG2-hNTCP, dose 0.5-500 nM.
Experiment [4] shares this target. Briefly: Inhibition of PRMT5 in human HepG2_hNTCP cells transfected with constant amounts of HBc-HA assessed as reduction in symmetric arginine dimethylation of HBc at 5 nM incubated for 72 hrs by Western blot analysis relative to control. The following applies: HepG2-hNTCP.

Sequence of Protein arginine N-methyltransferase 5 (Homo sapiens) (O14744 whole entry): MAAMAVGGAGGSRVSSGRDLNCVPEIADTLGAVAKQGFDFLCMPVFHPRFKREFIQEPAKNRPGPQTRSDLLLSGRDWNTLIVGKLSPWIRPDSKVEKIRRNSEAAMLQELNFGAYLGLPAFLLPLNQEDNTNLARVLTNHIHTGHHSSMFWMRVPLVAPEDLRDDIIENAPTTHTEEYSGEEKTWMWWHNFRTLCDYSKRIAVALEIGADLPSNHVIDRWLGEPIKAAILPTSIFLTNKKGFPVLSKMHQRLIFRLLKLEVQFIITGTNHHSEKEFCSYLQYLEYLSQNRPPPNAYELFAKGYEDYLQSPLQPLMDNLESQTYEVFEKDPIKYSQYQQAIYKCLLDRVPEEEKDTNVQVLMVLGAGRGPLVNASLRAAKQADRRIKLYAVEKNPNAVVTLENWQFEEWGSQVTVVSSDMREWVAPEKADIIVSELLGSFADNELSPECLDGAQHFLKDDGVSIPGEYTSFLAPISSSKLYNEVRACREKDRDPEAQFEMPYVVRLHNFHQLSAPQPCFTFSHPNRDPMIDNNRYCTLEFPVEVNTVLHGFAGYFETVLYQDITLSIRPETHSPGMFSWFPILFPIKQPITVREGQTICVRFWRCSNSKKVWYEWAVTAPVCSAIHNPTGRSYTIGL

Consider `O=C(NC[C@H](O)CN1CCc2ccccc2C1)c1ccnc(NC2CCC2)c1`, for which the inhibition entry in experiment [1], in experiment [2] and in experiment [3] was “Dose-Dependent Effect” throughout. In addition, the fold change (FC) in experiment [4] was 0.5.
